Laboratory results: BindingDB's records for patent US20250320234 (Pretzel Therapeutics, 2025)

These compounds were tested against T1, Lon protease homolog, mitochondrial (Homo sapiens, UniProt P36776) (assay: Biological/Biochemical Evaluation).
T1 sequence (P36776 whole entry): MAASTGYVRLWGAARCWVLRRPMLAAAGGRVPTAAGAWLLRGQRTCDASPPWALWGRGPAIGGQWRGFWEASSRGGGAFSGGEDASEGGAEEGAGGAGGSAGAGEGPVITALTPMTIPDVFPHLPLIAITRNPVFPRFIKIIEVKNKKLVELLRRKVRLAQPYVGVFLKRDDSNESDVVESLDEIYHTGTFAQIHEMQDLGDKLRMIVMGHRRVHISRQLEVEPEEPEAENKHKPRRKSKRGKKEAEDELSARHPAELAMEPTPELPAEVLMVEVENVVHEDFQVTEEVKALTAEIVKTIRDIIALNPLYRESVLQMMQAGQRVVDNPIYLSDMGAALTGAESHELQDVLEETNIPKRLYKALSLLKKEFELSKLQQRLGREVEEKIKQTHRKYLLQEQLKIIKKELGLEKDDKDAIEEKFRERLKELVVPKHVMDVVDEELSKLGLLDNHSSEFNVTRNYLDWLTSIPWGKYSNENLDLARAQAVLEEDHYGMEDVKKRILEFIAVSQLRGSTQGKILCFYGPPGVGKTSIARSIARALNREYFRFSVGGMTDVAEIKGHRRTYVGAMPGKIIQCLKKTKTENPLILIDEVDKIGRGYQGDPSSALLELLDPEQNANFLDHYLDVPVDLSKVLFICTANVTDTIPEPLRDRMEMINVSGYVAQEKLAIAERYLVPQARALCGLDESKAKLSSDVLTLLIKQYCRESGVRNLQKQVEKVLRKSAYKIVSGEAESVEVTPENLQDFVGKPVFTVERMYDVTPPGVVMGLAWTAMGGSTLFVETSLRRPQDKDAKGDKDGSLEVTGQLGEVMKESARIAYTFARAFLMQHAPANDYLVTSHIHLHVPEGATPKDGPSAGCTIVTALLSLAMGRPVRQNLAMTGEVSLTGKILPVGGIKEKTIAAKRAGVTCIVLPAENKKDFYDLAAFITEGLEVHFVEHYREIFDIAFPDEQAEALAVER
Method: In this Example, LONP1 (NM_004793.4) activity was measured by a FRET-based assay for protease activity using a fluorogenic peptide DabcylYRGIT(2Abu)SORQK(5-FAM) (Cambridge Research Biochemicals) as substrate. LONP1 activity is followed by an increase in fluorescence signal due to the degradation of the peptide. Inhibition of LONP1 protease activity by an inhibitor compound of the disclosure elicits a decrease in the fluorescent signal. The assay is performed in a 384-well plate (Greiner, cat. #781076) using the following reagents and conditions: substrate (3 μM) was incubated for 1 hour at 37° C. in the presence of LONP1 (15 nM as monomer), 25 mM Tris pH 8.0, 10 mM MgCl2, 0.03 mg/mL […], 0.5 mM DTT, 0.0003% Tween-20, 10 mM NaCl, 0.06 mM ATP and 0.5 mM EGTA in a 15 μL final volume. The LONP1-containing mix (10 μL) was incubated with the test compound for 15 min at 37° C. before adding the peptide-containing mix (5 μL). Solutions were dispensed using a small cassette-Multidrop Combi (Thermo Scientific). Fluorescence was measured using a PheraStar plate reader (BMG Labtech) FI-FRET EX 485 nm Em 520 nm.

IC50 | Structure (SMILES)
< 50 nM | COC[C@@H](NC(=O)c1ccccn1)C(=O)N[C@@H](CCOc1ccccc1)B(O)O [US20250320234, Compound 43]
< 50 nM | COC[C@@H](NC(=O)c1ccc(Cl)cc1)C(=O)N[C@@H](CCCc1ccccc1)B(O)O [US20250320234, Compound 51]
< 50 nM | COC[C@@H](NC(=O)c1cncc(C)c1)C(=O)N[C@@H](CCOc1ccccc1)B(O)O [US20250320234, Compound 44]
< 50 nM | COC[C@@H](NC(=O)c1ccccc1Cl)C(=O)N[C@@H](CCCc1ccccc1)B(O)O [US20250320234, Compound 57]
< 50 nM | COC[C@@H](NC(=O)c1cnccn1)C(=O)N[C@@H](CCOc1ccc(F)cc1)B(O)O [US20250320234, Compound 23]
< 50 nM | COC[C@@H](NC(=O)c1cccc(C)n1)C(=O)N[C@@H](CCOc1ccccc1)B(O)O [US20250320234, Compound 42]
< 50 nM | COC[C@@H](NC(=O)c1cnccn1)C(=O)N[C@@H](CCOc1ccc(Cl)cc1F)B(O)O [US20250320234, Compound 24]
< 50 nM | COC[C@@H](NC(=O)c1cncnc1)C(=O)N[C@@H](CCCc1ccccc1)B(O)O [US20250320234, Compound 52]
< 50 nM | COC[C@@H](NC(=O)N1CCOCC1)C(=O)N[C@@H](CCCc1ccccc1)B(O)O [US20250320234, Compound 31]
< 50 nM | COC[C@@H](NC(=O)c1cccc(Cl)c1)C(=O)N[C@@H](CCCc1ccccc1)B(O)O [US20250320234, Compound 54]
< 50 nM | CN(C)S(=O)(=O)C[C@H](NC(=O)c1cnccn1)C(=O)N[C@@H](CCCc1ccccc1)B(O)O [US20250320234, Compound 36]
< 50 nM | O=C(N[C@H](CSc1ccccc1)C(=O)N[C@@H](CCCc1ccccc1)B(O)O)c1cnccn1 [US20250320234, Compound 34]
> 5000 nM | COC[C@@H](NC(=O)c1cnccn1)C(=O)N[C@H](CCOc1ccc(Cl)cc1C)B(O)O [US20250320234, Compound 28]
< 50 nM | COC[C@@H](NC(=O)c1cc(Cl)ccc1Cl)C(=O)N[C@@H](CCCc1ccccc1)B(O)O [US20250320234, Compound 56]
< 50 nM | COC[C@@H](NC(=O)c1cnccn1)C(=O)N[C@@H](CCCc1ccc(F)cc1)B(O)O [US20250320234, Compound 32]
< 50 nM | COC[C@@H](NC(=O)c1cnccn1)C(=O)N[C@@H](CCOc1ccc(Cl)c(F)c1)B(O)O [US20250320234, Compound 25]

Further lines, the compound ahead of its results:

Structure (SMILES) | IC50
O=C(N[C@H](COCc1ccccc1)C(=O)N[C@@H](CCCc1ccccc1)B(O)O)c1cnccn1 [US20250320234, Compound 11] | < 50 nM
O=C(N[C@H](COC1CC1)C(=O)N[C@@H](CCCc1ccccc1)B(O)O)c1cnccn1 [US20250320234, Compound 20] | < 50 nM
COC[C@@H](NC(=O)c1cccc(C)n1)C(=O)N[C@@H](CCCc1ccccc1)B(O)O [US20250320234, Compound 10] | < 50 nM
COC[C@@H](NC(=O)c1cnccn1)C(=O)N[C@@H](CCOc1ccc(Cl)cc1)B(O)O [US20250320234, Compound 21] | < 50 nM
CO[C@@H](C)[C@@H](NC(=O)c1cnccn1)C(=O)N[C@@H](CCCc1ccccc1)B(O)O [US20250320234, Compound 6] | < 50 nM
COC[C@@H](NC(=O)c1cnccn1)C(=O)N[C@@H](CCCc1ccc(OC)cc1)B(O)O [US20250320234, Compound 5] | < 50 nM
COC[C@@H](NC(=O)c1cnccn1)C(=O)N[C@@](C)(CCCc1ccccc1)B(O)O [US20250320234, Compound 22] | > 5000 nM
COC[C@@H](NC(=O)c1cnccn1)C(=O)N[C@@H](CCCc1ccc(Cl)cc1)B(O)O [US20250320234, Compound 12] | < 50 nM
COC[C@@H](NC(=O)[C@@H]1CCC(=O)N1)C(=O)N[C@@H](CCCc1ccccc1)B(O)O [US20250320234, Compound 7] | < 50 nM
COC[C@@H](NC(=O)c1ccccn1)C(=O)N[C@@H](CCCc1ccccc1)B(O)O [US20250320234, Compound 9] | < 50 nM
COC[C@@H](NC(=O)c1cnccn1)C(=O)N[C@@H](CCOc1ccccc1)B(O)O [US20250320234, Compound 14] | < 50 nM
